Measured values: patent US11920126B2, “Bio-manufacturing process” (priority 2018, dated 2024)

Legend:
Trichoderma = assay: Trichoderma-loaded feedstocks co-cultured with engineered Streptomyces; format: cell-based; details: feedstocks loaded with Trichoderma spores, no production fungus
Protocol: The efficacy of inhibitory properties was tested in feedstocks without the addition of the fungus. Feedstocks were loaded with Trichoderma spores, a common mold contaminate. Engineered Streptomyces was then co-cultured in these contaminated feedstocks, and the inhibitory effects were recorded.

Ascomycete contaminants = assay: natamycin inhibition, in vitro liquid media culture; format: cell-based; details: cultured in vitro (liquid media)
Description: Streptomyces natalensis naturally produces low levels of pimaricin, also known as natamycin, which is a fungicide with the ability to bind to sterols found in fungal cell membranes, thus making the cell wall permeable and lysing the cell. This fungicide has greater activity against Ascomycete contaminants, versus production fungi Ganoderma or Trametes. Natamycin's affinity for non-basidiomycetes species make this particular antifungal an attractive target for expression during cultivated manufacturing.
By up-regulating the expression of pimM, the total yield of natamycin produced by our Streptomyces natalensis strains was increased. In this respect, natamycin production in wild type Streptomyces natalensis […] the effective range of inhibition (5 ug/mL) when cultured in vitro (liquid media). […] Engineering a bacterium strain with increased natamycin potency helps to reduce the bacterial loading needed for substrate bioburden mitigation, thus further reducing process and material cost.

## C[C@@H]1C/C=C/C=C/C=C/C=C/[C@H](O[C@@H]2O[C@H](C)[C@@H](O)[C@H](N)[C@@H]2O)C[C@@H]2O[C@](O)(C[C@@H](O)C[C@H]3O[C@@H]3/C=C/C(=O)O1)C[C@H](O)[C@H]2C(=O)O [natamycin]
Trichoderma
  inhibitory effect of Trichoderma in feedstocks as a function of natamycin expression: strong linear inhibitory effect
Ascomycete contaminants
  effective range of inhibition: 5 µg/mL
